Values quoted from earlier work in patent publication US20140100183A1, “CENTRAL ADMINISTRATION OF STABLE FORMULATIONS OF THERAPEUTIC AGENTS FOR CNS CONDITIONS” (The Regents of the University of Colorado, a body corporate, priority 2006, published 2014).
Where a name gives a salt, the structure may show the parent alone. Read-outs that look alike come from different tables or passages of the source.

Details: cited from earlier work; for Comments: solubility: qualitative, solvents as given in the source

COc1cc2nc(N3CCN(C(=O)c4ccco4)CC3)nc(N)c2cc1OC.Cl [PRAZOSIN, 2-[4-(2-Furoyl)piperazin-1-yl]-6,7 dimethoxyquinazolin-4-ylamine hydrochloride]
Solubility in water: very slightly soluble in water (<1 mg/ml) and readily soluble in organic solvents such as ethanol and acetone | Comments: solubility: very slightly soluble in water (<1 mg/ml) and readily soluble in organic solvents such as ethanol and acetone

Cc1nnc2n1-c1ccc(Cl)cc1C(c1ccccc1)=NC2 [ALPRAZOLAM, 8-Chloro-1-methyl-6-phenyl-4H-s-triazolo(4,3-a) (1,4) benzodiazepine]
Comments: solubility: very slightly soluble in water

O=C(O)c1ccccc1O [SALICYLIC ACID, 2-Hydroxybenzoic acid]
Comments: solubility: almost insoluble in water

(−)-trans-4R-(4′- fluorophenyl)-3S-((3′,4′- methylenedioxyphenoxy) methyl)piperidine [PAROXETINE]
Comments: solubility: soluble in alcohol and poorly soluble in water

CN(C)CCCN1c2ccccc2CCc2ccccc21 [IMIPRAMINE, 10,11-dihydro-N,N-dimethyl-5H-Dibenz[b,f]azepine-5-propanamine]
Comments: solubility: insoluble in the common organic solvents, but very soluble in water.

CN1CCN(CC/C=C2/c3ccccc3Sc3ccc(S(=O)(=O)N(C)C)cc32)CC1 [THIOTHIXINE, cis isomer of N,N-dimethyl-9-[…]3-(4-methyl-1-piperazinyl)-propylidene[…] thioxanthene-2-sulfonamide.]
Comments: solubility: Slightly soluble in water; soluble in alcohol and in methyl alcohol

C=CCN1CC[C@]23c4c5ccc(O)c4O[C@H]2C(=O)CC[C@@]3(O)[C@H]1C5 [NALOXONE, (−)-17-Allyl-4, 5α-epoxy-3,14-dihydroxymorphinan-6-one hydrochloride]
Comments: solubility: freely soluble in USP alcohol and very soluble in water

CCc1nn(CCCN2CCN(c3cccc(Cl)c3)CC2)c(=O)n1CCOc1ccccc1 [NEFAZODONE, 2-(3-(4-(3-chlorophenyl)-1-piperazinyl)propyl)-5-ethyl-2,4-dihydro-4-(2-phenoxyethyl)-3H-1,2,4-triazol-3-one]
Solubility in water (at 25 C.): Soluble in water <0.1 g/100 mL at 25 C.

CCC(=O)C(CC(C)N(C)C)(c1ccccc1)c1ccccc1 (stereo not shown) [METHADONE, 1,1-Diphenyl-1-(2-dimethylaminopropyl)-2-butanone]
Comments: solubility: Soluble in water; freely soluble in alcohol and in chloroform; practically insoluble in ether and in glycerol

O=C(CCCN1CCC(O)(c2ccc(Cl)cc2)CC1)c1ccc(F)cc1 [HALOPERIDOL, 4-[4-(p-chlorophenyl)-4-hydroxypiperidino]-4′-fluorobutyrophenone]
Comments: solubility: sparingly soluble in water and soluble in ethanol

CCN(CC)C(=S)SSC(=S)N(CC)CC [ANTABUSE, bis (diethylthiocarbamoyl) disulfide]
Solubility in water (at 22 C.): Soluble in water <0.1 g/100 mL at 22 C.

CC(NC(C)(C)C)C(=O)c1cccc(Cl)c1.Cl (stereo not shown) [BUPROPION, 1-(3-chlorophenyl)-2-[(1,1-dimethylethyl)amino]-1-propanone hydrochloride]
Comments: solubility: freely soluble in water and soluble in alcohol and in chloroform.

Clc1ccc2c(c1)C(N1CCNCC1)=Nc1ccccc1O2 [AMOXAPINE, 2-Chloro-11-(1-piperazinyl)dibenz(b,f)(1,4) oxazepine]
Comments: solubility: Soluble 1 in 460 of water, 1 in 15 of boiling water, 1 in 3 of alcohol, 1 in 45 of chloroform, 1 in 3 of ether, and 1 in 135 of benzene.

[Li] [LITHIUM]
Solubility in water (at 22 C.): water 0.1-0.5 g/100 mL

Cc1nnc2n1-c1ccc(Cl)cc1C(c1ccccc1Cl)=NC2 [TRIAZOLAM, 8-chloro-6-(o-chlorophenyl)-1-methyl-4H-s-triazolo-(4,3-alpha)(1,4) benzodiazepine]
Comments: solubility: practically insoluble in water and soluble in alcohol and in acetone
